In patent publication US20170239182A1, “PHARMACEUTICAL FORMULATIONS OF AND METHODS TO PREPARE CHELATING AGENTS FOR EFFICIENT METAL REMOVAL TREATMENT SYSTEMS” (ZONEONE PHARMA, INC., priority 2014, published 2017):
Where a name gives a salt, the structure may show the parent alone.

Assays:
[1] = Plasma PK of DFO after IV administration of liposomal DFO or Desferal to mice; type: in vivo, CF-1 female mice; details: 100 mg/kg
Method: Liposomes containing egg PC/Chol (3 mol/2 mol, LDFO-1), egg PC/DOPG/Chol (2.7 mol/0.3 mol/2 mol, LDFO-2), and HSPC/Chol (3 mol/2 mol, LDFO-4) containing 500 mM ammonium sulfate were prepared as in Example 1. DFO was remote loaded as in Example 20.
After loading the liposomes were purified by dialysis versus HBS pH 6.5. The liposomes were sterilized by filtration through 0.2 um PES filters and analyzed for drug and lipid content. The liposomal DFO were administered to CF-1 female mice at 100 mg/kg (n=3) and at various times the animals were sacrificed and blood taken.
After processing to plasma, DFO was extracted from plasma by mixing with 6 volumes of methanol containing 0.1% trifluoroacetic acid in an epppendorf tube. The mixtures were vortexed twice for 10 seconds then placed at −80° C. for 1 h. The samples were thawed and centrifuged for 12,000 rpm for 10 min at 4° C. and the supernatant analyzed for DFO by HPLC as described herein. […] By comparison DFO was undetectable beyond 1 h after dosing with Desferal®.

[2] = tested on: Iron Overloaded Mouse Model; experiment: Liver iron removal from iron overloaded mouse model (ferrozine assay); type: in vivo, mice; details: IV 100 mg/kg chelator on day 7 and day 10 after iron-dextran 100 mg/kg Fe
Method: LDFO formulations were prepared as described in Example 1. Both formulations were composed of HSPC/cholesterol (3/0.5 (mol/mol)). One formulation was prepared using 250 mM ammonium sulfate (LDFO-AS) as the trapping agent and the second formulation was prepared using 250 mM ascorbate phosphate (LDFO-AP) as the trapping agent and all other components and DFO loading procedures of the formulations were identical. Mice were overloaded with a single IV injection of iron-dextran at 100 mg/kg Fe. Overloaded mice were treated with each formulation IV at 100 mg/kg chelator on day 7 and day 10. The mice were sacrificed after the second treatment and the livers were analyzed for iron content using a ferrozine assay (Riemer et al. 2004)

| Structure (SMILES) | DFO in plasma ([1]; beyond 1 h after dosing) | initial dose (ID) of DFO retained in the plasma ([1]; IV, 24 h) | mean liver iron content [2] |
| --- | --- | --- | --- |
| CC(=O)N(O)CCCCCNC(=O)CCC(=O)N(O)CCCCCNC(=O)CCC(=O)N(O)CCCCCN [Desferal, deferoxamine mesylate] | undetectable | undetectable | – |
| CC(=O)N(O)CCCCCNC(=O)CCC(=O)N(O)CCCCCNC(=O)CCC(=O)N(O)CCCCCN [free DFO, Deferoxamine] | – | – | 229 mg/kg |
